{"source": "patent US10617683B2", "about": "“Inhibitors of CRL4 ubiquitin ligase and uses thereof” (Cornell University, priority 2012, dated 2020)", "tested_on": "DDB2 degradation by CUL4A in MEF cells expressing FLAG-tagged DDB2", "assay": "cell-based assay for DDB2 degradation by CUL4A following UV", "parameters": "species or system Mouse", "details": "positive control, FIG. 2 lane 3", "excerpt": "FIG. 2 is an image which depicts experimental data illustrating the results of a cell-based DDB2 degradation assay. The tested compounds, which are described in detail in FIGS. 7-11, included the following small molecule compounds: PZ-104 (lane 1); PZ-108 (lane 2); PZ-106 (lane 3); PZ-101 (lane 4); PZ-103 (lane 5); PZ-501 (lane 6); PZ-202 (lane 7); PZ-203 (lane 8); PZ-201 (lane 9); PZ-301 (lane 10); PZ-305 (lane 11); PZ-303 (lane 12); PZ-601 (lane 13); PZ-701 (lane 14); PZ-701 (lane 15); PZ-901 (lane 16); PZ-1001 (lane 17); PZ-1101 (lane 18); PZ-1201 (lane 19); PZ-401 (lane IV1); PZ-402 (lane IV2); and PZ-403 (IV3). MG132, a proteasome inhibitor that blocks UV-induced DDB2 degradation, was a positive control. Tubulin levels were determined by Western blotting as a loading control. […]\nA cell-based assay for DDB2 degradation by CUL4A following exposure to UV light was used as a second validation assay to evaluate the hit compounds. […] Three hours post UV exposure, cells were lysed in 1×SDS buffer and protein concentrations were measured by the BCA kit. F-DDB2 levels were detected by SDS PAGE and Western blotting, and tubulin levels were used as loading control. […]", "note": "Where a SMILES comes first, the peptide text is derived from it. The star is where a group is joined. Cbz = O=C(OCc1ccccc1)*"}
{"smiles": "CC(C)C[C@@H](C=O)NC(=O)[C@H](CC(C)C)NC(=O)[C@H](CC(C)C)NC(=O)OCc1ccccc1", "note": "[MG132] (Cbz-Leu-Leu-Leu-aldehyde)", "values": [{"measurement": "UV-induced DDB2 degradation", "result": "blocks"}]}
